ChEMBL document CHEMBL1153119, “Design and synthesis of orally-active and selective azaindane 5HT2c agonist for the treatment of obesity” (Bioorg Med Chem Lett, 2010)
Active and inactive are the calls of the source. The calls are words filed in the database; no cut-off is given here.

Tests used:
[1] = biological target: T1, 5-hydroxytryptamine receptor 2C (Homo sapiens) (UniProt P28335); test: Agonist activity against human 5HT2C receptor by FLIPR assay
T1 sequence (whole entry): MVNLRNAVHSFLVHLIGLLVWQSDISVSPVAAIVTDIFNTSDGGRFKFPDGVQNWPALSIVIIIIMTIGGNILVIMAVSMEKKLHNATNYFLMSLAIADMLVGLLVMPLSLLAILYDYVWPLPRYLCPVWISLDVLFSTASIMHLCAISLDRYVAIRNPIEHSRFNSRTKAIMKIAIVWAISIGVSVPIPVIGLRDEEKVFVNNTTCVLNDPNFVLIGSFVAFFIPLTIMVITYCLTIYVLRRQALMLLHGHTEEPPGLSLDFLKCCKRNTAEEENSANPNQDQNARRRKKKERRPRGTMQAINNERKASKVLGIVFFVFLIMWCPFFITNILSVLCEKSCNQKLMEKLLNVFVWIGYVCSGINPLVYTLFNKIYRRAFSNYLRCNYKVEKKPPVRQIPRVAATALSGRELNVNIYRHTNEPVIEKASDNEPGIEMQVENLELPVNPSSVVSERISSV

[2] = biological target: T2, 5-hydroxytryptamine receptor 2B (Homo sapiens, UniProt P41595); test: Displacement of [125I]DOI from human 5HT2B receptor expressed in CHO cells; type: cell-based
[3] = biological target: 5-hydroxytryptamine receptor 2A (Rattus norvegicus, UniProt P14842); test: Displacement of [125I]DOI from rat 5HT2A receptor expressed in mouse 3T3 cells; type: cell-based, NIH3T3
[4] = biological target: T3, 5-hydroxytryptamine receptor 2C (Homo sapiens, UniProt P28335); test: Agonist activity against human 5HT2C receptor by FLIPR assay; type: functional
T3 sequence (P28335 whole entry): T1 sequence (whole entry)

[5] = biological target: T4, 5-hydroxytryptamine receptor 2A (Homo sapiens, UniProt P28223); test: Agonist activity against human 5HT2A receptor by FLIPR assay; type: functional
[6] = biological target: T2, 5-hydroxytryptamine receptor 2B; test: Agonist activity against human 5HT2B receptor by FLIPR assay; type: functional
[7] = biological target: T4, 5-hydroxytryptamine receptor 2A; test: Agonist activity against human 5HT2A receptor by FLIPR assay relative to 5HT; type: functional
[8] = biological target: T3, 5-hydroxytryptamine receptor 2C; test: Antagonist activity against human 5HT2C receptor by FLIPR assay; type: functional
[9] = biological target: T3, 5-hydroxytryptamine receptor 2C; test: Displacement of [3H]5HT from human 5HT2C receptor expressed in mouse 3T3 cells by scintillation counting; type: cell-based, NIH3T3
[10] = biological target: T2, 5-hydroxytryptamine receptor 2B; test: Agonist activity against human 5HT2B receptor by FLIPR assay relative to 5HT; type: functional
[11] = biological target: T1, 5-hydroxytryptamine receptor 2C (Homo sapiens); test: Antagonist activity against 5HT2c receptor; type: functional
[12] = Intrinsic clearance in monkey microsomes at 0.3 mM; type: ADME, Macaca mulatta, Microsome; details: rhesus monkey
[13] = biological target: Voltage-gated inwardly rectifying potassium channel KCNH2 (Homo sapiens, UniProt Q12809); test: Inhibition of human ERG channel
[14] = biological target: T1, 5-hydroxytryptamine receptor 2C (Homo sapiens); test: Agonist activity against human 5HT2C receptor by GTPgammaS binding relative to control; type: functional
[15] = Clearance in dog; type: ADME, organism-based, Canis lupus familiaris; details: in vivo
[16] = Intrinsic clearance in human microsomes at 0.3 mM; type: ADME, Microsome
[17] = Intrinsic clearance in monkey hepatocyte at 1 mM; type: ADME, tissue-based, Macaca mulatta, Liver; details: rhesus monkey, hepatocytes
[18] = Half life in human hepatocyte at 1 mM; type: ADME, cell-based, Liver; details: hepatocytes
[19] = biological target: T4, 5-hydroxytryptamine receptor 2A; test: Antagonist activity against 5HT2A receptor; type: functional
[20] = biological target: T3, 5-hydroxytryptamine receptor 2C; test: Agonist activity against human 5HT2C receptor by GTPgammaS binding; type: functional
Rattus norvegicus = test: Antiobesity activity in Sprague-Dawley rat model assessed as reduction in food intake at 100 mg/kg, po after 2 hrs; type: functional; parameters: scale not given: the % may be the effect or the level left
[21] = biological target: T2, 5-hydroxytryptamine receptor 2B; test: Antagonist activity against 5HT2B receptor; type: functional
[22] = Intrinsic clearance in human hepatocyte at 1 mM; type: ADME, cell-based, Liver; details: hepatocytes
[23] = Half life in dog microsomes at 0.3 mM; type: ADME, Canis lupus familiaris, Microsome
[24] = Half life in rat microsomes at 0.3 mM; type: ADME, Microsome
[25] = Intrinsic clearance in rat hepatocyte at 1 mM; type: ADME, cell-based, Liver; details: hepatocytes
[26] = Ratio of drug uptake in CSF to free plasma in rat; type: ADME, organism-based; details: in vivo
[27] = Clearance in monkey; type: ADME, organism-based, Macaca mulatta; details: rhesus monkey, in vivo
[28] = biological target: T4, 5-hydroxytryptamine receptor 2A; test: Agonist activity against 5HT2A receptor assessed as inositol phosphate accumulation; type: functional
[29] = Clearance in rat; type: ADME, organism-based; details: in vivo
[30] = Half life in rat hepatocyte at 1 mM; type: ADME, cell-based, Liver; details: hepatocytes
[31] = Half life in human microsomes at 0.3 mM; type: ADME, Microsome
[32] = Half life in monkey hepatocyte at 1 mM; type: ADME, Macaca mulatta, Liver; details: rhesus monkey, hepatocytes
[33] = biological target: T1, 5-hydroxytryptamine receptor 2C (Homo sapiens); test: Agonist activity against human 5HT2C receptor assessed as inositol phosphate accumulation; type: functional
[34] = Intrinsic clearance in rat microsomes at 0.3 mM; type: ADME, Microsome
[35] = Intrinsic clearance in dog microsomes at 0.3 mM; type: ADME, Canis lupus familiaris, Liver, Microsome
[36] = Ratio of drug uptake in CSF to plasma in rat; type: ADME
[37] = Ratio of drug uptake in brain to plasma in rat; type: ADME, organism-based; details: in vivo
[38] = Half life in monkey microsomes at 0.3 mM; type: ADME, Macaca mulatta, Microsome; details: rhesus monkey
[39] = Half life in dog hepatocyte at 1 mM; type: ADME, Canis lupus familiaris, Liver; details: hepatocytes
[40] = Intrinsic clearance in dog hepatocyte at 1 mM; type: ADME, tissue-based, Canis lupus familiaris, Liver; details: hepatocytes
[41] = biological target: T2, 5-hydroxytryptamine receptor 2B; test: Agonist activity against 5HT2B receptor assessed as inositol phosphate accumulation; type: functional

T2 sequence (P41595 whole entry): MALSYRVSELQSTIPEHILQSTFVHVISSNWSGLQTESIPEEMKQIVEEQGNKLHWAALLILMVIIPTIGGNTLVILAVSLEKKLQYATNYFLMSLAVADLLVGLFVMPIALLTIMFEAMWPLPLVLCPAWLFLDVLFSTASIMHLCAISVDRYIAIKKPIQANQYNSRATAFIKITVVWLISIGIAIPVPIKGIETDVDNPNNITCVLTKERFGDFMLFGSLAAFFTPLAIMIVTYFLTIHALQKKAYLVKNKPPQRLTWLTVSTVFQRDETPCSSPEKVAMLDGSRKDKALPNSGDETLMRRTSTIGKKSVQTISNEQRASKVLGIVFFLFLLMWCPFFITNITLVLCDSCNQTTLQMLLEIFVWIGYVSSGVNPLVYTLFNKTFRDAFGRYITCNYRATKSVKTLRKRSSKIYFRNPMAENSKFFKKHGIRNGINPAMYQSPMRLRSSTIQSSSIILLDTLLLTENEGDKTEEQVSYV
T4 sequence (P28223 whole entry): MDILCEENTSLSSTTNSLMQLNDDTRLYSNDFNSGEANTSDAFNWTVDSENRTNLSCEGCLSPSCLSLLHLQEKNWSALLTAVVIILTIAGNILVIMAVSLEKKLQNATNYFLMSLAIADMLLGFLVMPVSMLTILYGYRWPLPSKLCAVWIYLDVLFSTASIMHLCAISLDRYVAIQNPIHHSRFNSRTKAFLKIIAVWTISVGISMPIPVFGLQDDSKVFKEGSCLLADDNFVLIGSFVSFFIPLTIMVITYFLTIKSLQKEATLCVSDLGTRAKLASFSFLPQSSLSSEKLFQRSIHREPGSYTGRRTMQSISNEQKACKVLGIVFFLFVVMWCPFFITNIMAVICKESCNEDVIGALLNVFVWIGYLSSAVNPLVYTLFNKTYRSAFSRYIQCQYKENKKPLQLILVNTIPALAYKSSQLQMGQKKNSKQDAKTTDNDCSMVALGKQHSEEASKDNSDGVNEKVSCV
5-hydroxytryptamine receptor 2A (Rattus norvegicus, UniProt P14842), sequence (P14842 whole entry): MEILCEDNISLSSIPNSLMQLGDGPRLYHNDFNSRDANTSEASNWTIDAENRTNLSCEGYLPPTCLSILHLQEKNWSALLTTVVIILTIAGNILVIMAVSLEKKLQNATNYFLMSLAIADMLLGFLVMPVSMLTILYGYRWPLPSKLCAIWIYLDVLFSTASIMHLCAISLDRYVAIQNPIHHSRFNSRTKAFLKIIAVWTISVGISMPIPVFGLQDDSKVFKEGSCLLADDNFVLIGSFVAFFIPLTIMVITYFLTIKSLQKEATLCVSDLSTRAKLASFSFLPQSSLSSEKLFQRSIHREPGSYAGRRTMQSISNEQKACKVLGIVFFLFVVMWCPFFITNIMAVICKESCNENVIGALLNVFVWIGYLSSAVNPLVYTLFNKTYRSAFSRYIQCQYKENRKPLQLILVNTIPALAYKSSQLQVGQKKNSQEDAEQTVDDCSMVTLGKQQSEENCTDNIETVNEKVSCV
Voltage-gated inwardly rectifying potassium channel KCNH2, sequence (Q12809 whole entry): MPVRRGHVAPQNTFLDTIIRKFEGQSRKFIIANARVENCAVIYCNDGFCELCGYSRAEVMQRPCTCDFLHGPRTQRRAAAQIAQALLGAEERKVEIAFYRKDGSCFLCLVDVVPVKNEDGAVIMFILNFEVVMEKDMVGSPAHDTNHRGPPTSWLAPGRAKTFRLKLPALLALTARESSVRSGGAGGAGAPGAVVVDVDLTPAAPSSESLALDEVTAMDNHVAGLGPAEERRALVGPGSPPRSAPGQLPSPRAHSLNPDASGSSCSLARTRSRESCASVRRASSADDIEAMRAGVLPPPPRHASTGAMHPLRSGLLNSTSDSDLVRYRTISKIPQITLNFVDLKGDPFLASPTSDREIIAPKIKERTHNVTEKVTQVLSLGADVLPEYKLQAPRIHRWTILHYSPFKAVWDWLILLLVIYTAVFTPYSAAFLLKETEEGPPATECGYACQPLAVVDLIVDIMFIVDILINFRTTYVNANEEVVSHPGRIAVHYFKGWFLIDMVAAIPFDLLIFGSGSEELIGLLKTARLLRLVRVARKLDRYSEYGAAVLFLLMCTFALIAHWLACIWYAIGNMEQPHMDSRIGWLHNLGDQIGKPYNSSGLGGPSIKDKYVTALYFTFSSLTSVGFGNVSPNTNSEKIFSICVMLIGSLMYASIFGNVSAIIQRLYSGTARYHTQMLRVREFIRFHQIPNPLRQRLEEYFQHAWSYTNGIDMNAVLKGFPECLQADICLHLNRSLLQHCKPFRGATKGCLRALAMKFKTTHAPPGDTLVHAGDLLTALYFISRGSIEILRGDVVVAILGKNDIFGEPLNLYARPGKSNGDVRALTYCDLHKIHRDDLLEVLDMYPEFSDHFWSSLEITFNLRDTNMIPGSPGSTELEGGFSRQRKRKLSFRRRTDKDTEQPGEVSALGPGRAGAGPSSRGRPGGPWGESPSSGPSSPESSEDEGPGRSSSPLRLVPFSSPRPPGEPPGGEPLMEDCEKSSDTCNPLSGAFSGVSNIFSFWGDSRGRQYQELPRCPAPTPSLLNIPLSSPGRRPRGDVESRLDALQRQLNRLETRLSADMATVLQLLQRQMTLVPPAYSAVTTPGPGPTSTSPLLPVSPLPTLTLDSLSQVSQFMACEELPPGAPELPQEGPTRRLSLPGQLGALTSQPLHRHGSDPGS

## c1ccc2c(c1)sc1c(N3CCNCC3)ncnc12
[1]
  Activity: 31%

## Clc1ccccc1O[C@H]1CCCc2ccc(N3CCNCC3)nc21
[2]; cho
  Ki: Not Active
[3]
  Ki: 0.7 nM
[1]
  Activity: 97%
[4]
  EC50: 10 nM
[5]
  EC50: 70 nM
[6]
  EC50: 397 nM
[7]
  Activity: 93%

## Clc1nc(N2CCNCC2)nc2sccc12
[1]
  Activity: 69%
[4]
  EC50: 616 nM

## Clc1nc(N2CCNCC2)c2scc(-c3ccccc3)c2n1
[8]
  IC50: 540 nM

## COc1nc(N2CCNCC2)nc2c1CCCC2
[1]
  Activity: 53%
[4]
  EC50: 5000 nM

## Clc1cccc(COc2nc(N3CCNCC3)nc3sccc23)c1
[1]
  Activity: 53%
[4]
  EC50: 1200 nM

## c1nc(N2CCNCC2)c2sccc2n1
[1]
  Activity: 81%
[4]
  EC50: 400 nM

## Fc1cccc(O[C@H]2CCc3ccc(N4CCNCC4)nc32)c1
[9]
  Ki: 3 nM

## C[C@@H]1CNCCN1c1ccc2c(n1)[C@@H](Oc1ccccc1Cl)CC2
[9]
  Ki: 0.6 nM

## Cn1cnc2nc(OCc3ccccc3)nc(N3CCNCC3)c21
[8]
  IC50: > 500 nM

## c1cc2c(nc1N1CCNCC1)CCCC2
[2]; cho
  Ki: Not Active
[3]
  Ki: 21 nM
[1]
  Activity: 93%
[4]
  EC50: 25 nM
[5]
  EC50: 2200 nM
[7]
  Activity: 60%
[10]
  Activity: Active

## c1cc2occc2c(N2CCNCC2)n1
[1]
  Activity: 67%
[4]
  EC50: 164 nM

## CCCn1cnc2c(N3CCNCC3)ncnc21
[1]
  Activity: 55%
[4]
  EC50: 1250 nM

## Clc1ccccc1O[C@H]1CCc2ccc(N3CCNCC3)nc21
[2]; cho
  Ki: Not Active
[3]
  Ki: 1 nM
[1]
  Activity: 92%
[4]
  EC50: 0.1 nM
[5]
  EC50: 87 nM
[6]
  EC50: 300 nM
[7]
  Activity: 87%
[10]
  Activity: 58%

## Clc1ccccc1OC1CCc2ccc(N3CCNCC3)nc21 (stereo not given)
[2]; cho
  Ki: Not Active
[3]
  Ki: 3.8 nM
[1]
  Activity: 93%
[4]
  EC50: 0.1 nM
[5]
  EC50: 236 nM
[6]
  EC50: 187 nM
[7]
  Activity: 75%
[10]
  Activity: 50%

## Clc1nc(N2CCNCC2)c2c3c(sc2n1)CCCC3
[8]
  IC50: 710 nM

## Clc1ccccc1O[C@@H]1CCCc2ccc(N3CCNCC3)nc21
[2]; cho
  Ki: Not Active
[3]
  Ki: 2 nM
[1]
  Activity: 95%
[4]
  EC50: 120 nM
[5]
  EC50: 578 nM
[6]
  EC50: 998 nM
[7]
  Activity: 76%

## Cc1ccc(F)cc1CO[C@H]1CCc2ccc(N3CCNC[C@H]3C)nc21
[11]
  Kb: inactive
[12]
  CLint scaled: 350 mL/min/kg
[13]
  IC50: 3900 nM
[14]
  Activity: 86%
[15]
  clearance: 34 mL/min/kg
[16]
  CLint scaled: 20 mL/min/kg
[17]
  CLint scaled: 43 mL/min/kg
[18]
  half-life: 170 min
[3]
  Ki: 4.4 nM
[19]
  Kb: 62 nM
[4]
  EC50: 3.4 nM
[20]
  EC50: 1.9 nM
[5]
  EC50: 630 nM
Rattus norvegicus
  Activity: -74%
[21]
  Kb: 4 nM
[22]
  CLint scaled: 5.1 mL/min/kg
[6]
  EC50: 566 nM
[23]
  half-life: 24 min
[24]
  half-life: 2.2 min
[25]
  CLint scaled: 400 mL/min/kg
[26]
  ratio: 0.5
[27]
  clearance: 8.6 mL/min/kg
[28]
  Activity: inactive
[29]
  clearance: 90 mL/min/kg
[30]
  half-life: 4.7 min
[31]
  half-life: 44 min
[10]
  Emax: 28%
[8]
  IC50: ≤ 86 nM
[32]
  half-life: 53 min
[33]
  Activity: inactive
[34]
  CLint scaled: 1500 mL/min/kg
[35]
  CLint scaled: 59 mL/min/kg
[36]
  Kp: 0.015
[37]
  ratio: 3.4
[38]
  half-life: 12 min
[39]
  half-life: 64 min
[40]
  CLint scaled: 41 mL/min/kg
[41]
  EC50: > 10000 nM

## Cc1csc2c(OCc3cccc(Cl)c3)nc(N3CCNCC3)nc12
[8]
  IC50: 126 nM

## c1cc2sccc2c(N2CCNCC2)n1
[1]
  Activity: 60%
[4]
  EC50: 187 nM

## Clc1ccccc1O[C@@H]1CCc2ccc(N3CCNCC3)nc21
[2]; cho
  Ki: Not Active
[3]
  Ki: 41 nM
[1]
  Activity: 97%
[4]
  EC50: 22 nM
[5]
  EC50: 1310 nM
[6]
  EC50: 748 nM
[7]
  Activity: 46%
[10]
  Activity: 21%

## Clc1cccc(COc2nc(N3CCNCC3)nc3ccsc23)c1
[1]
  Activity: 43%
[4]
  EC50: 2600 nM

## Cc1cc2c(N3CCNCC3)ncnc2o1
[1]
  Activity: 45%
[4]
  EC50: 660 nM

## c1ccc2c(N3CCNCC3)nccc2c1
[8]
  IC50: 24 nM

## Brc1cn2ccnc2c(N2CCNCC2)n1
[1]
  Activity: 79%
[4]
  EC50: 1360 nM

## c1nc(N2CCNCC2)c2ccsc2n1
[1]
  Activity: 74%
[4]
  EC50: 530 nM

## Fc1ccc(F)c(CO[C@H]2CCc3ccc(N4CCNCC4)nc32)c1
[2]; read-out: Ki
  Ki: 153 nM
[3]
  Ki: 15 nM
[1]
  Activity: 91%
[4]
  EC50: 1.4 nM
[5]
  EC50: 1500 nM
[6]
  EC50: 2700 nM
[7]
  Activity: 13%
[10]
  Activity: 18%

## Clc1cccc(COc2nc(N3CCNCC3)nc3nc[nH]c23)c1
[8]
  IC50: 410 nM

## C[C@@H]1CNCCN1c1ccc2c(n1)[C@@H](OCc1cc(F)ccc1F)CC2
[2]; read-out: Ki
  Ki: 83 nM
[3]
  Ki: 16 nM
[1]
  Activity: 96%
[4]
  EC50: 1 nM
[5]
  EC50: 1430 nM
[7]
  Activity: 18%

## c1nc(N2CCNCC2)c2cc[nH]c2n1
[1]
  Activity: 91%
[4]
  EC50: 755 nM
